Assay [1] relates to vitamin D-deficient rats. Description: Bone calcium mobilization (serum calcium). The assay is classed as in vivo, Sprague-Dawley rats. The text has this:
Intestinal Calcium Transport and Bone Calcium Mobilization
Male, weanling Sprague-Dawley rats were placed on Diet 11 (Suda et al, J. Nutr. 100:1049, 1970) (0.47% Ca)+vitamins AEK for one week followed by Diet 11 (0.02% Ca)+vitamins AEK for 3 weeks. The rats were then switched to the same diet containing 0.47% Ca for one week followed by two weeks on the same diet containing 0.02% Ca. Dose administration began during the last week on 0.02% calcium diet. Four consecutive ip doses were given approximately 24 hours apart. Twenty-four hours after the last dose, blood was collected from the severed neck and the concentration of serum calcium determined by atomic absorption spectrometry as a measure of bone calcium mobilization. The first 10 cm of the intestine was also collected for intestinal calcium transport analysis using the everted gut sac method.

Assay [2] concerns 24-hydroxylase (24 Ohase) gene promoter in ROS 17/2.8 (bone) cells. Description: In vitro transcription assay (24-hydroxylase promoter luciferase reporter). The conditions noted are these: for EC50: ROS 17/2.8 cells, 24-hydroxylase promoter luciferase, 16 h, FIG. 3, read-out: EC50, transcriptional activity in bone cells. The assay is classed as cell-based. As for the experimental part:
In Vitro Transcription Assay Transcription activity was measured in ROS 17/2.8 (bone) cells that were stably transfected with a 24-hydroxylase (24 Ohase) gene promoter upstream of a luciferase reporter gene (Arbour et al., 1998). Cells were given a range of doses. Sixteen hours after dosing the cells were harvested and luciferase activities were measured using a luminometer. RLU=relative luciferase units.
For orientation: Reporter assays use an easily measured gene product as a stand-in for the process of interest.

In assay [3] the test system is Human promyelocytic leukemia (HL60) cells. Nature of the assay: HL-60 differentiation (nitro blue tetrazolium reduction). The conditions noted are these: four days, FIG. 2. The assay is classed as cell-based. As to the method:
The study drugs were dissolved in ethanol and the concentrations determined using UV spectrophotometry. Serial dilutions were prepared so that a range of drug concentrations could be tested without changing the final concentration of ethanol (≦0.2%) present in the cell cultures.
Human promyelocytic leukemia (HL60) cells were grown in RPMI-1640 medium containing 10% fetal bovine serum. The cells were incubated at 37° C. in the presence of 5% CO2.
HL60 cells were plated at 1.2×10^5 cells/ml. Eighteen hours after plating, cells in duplicate were treated with drug. Four days later, the cells were harvested and a nitro blue tetrazolium reduction assay was performed (Collins et al., 1979; J. Exp. Med. 149:969-974). The percentage of differentiated cells was determined by counting a total of 200 cells and recording the number that contained intracellular black-blue formazan deposits. Verification of differentiation to monocytic cells was determined by measuring phagocytic activity (data not shown).

For assay [4], the system named is vitamin D-deficient rats. Nature of the assay: Intestinal calcium transport (everted gut sac method). Type of assay: in vivo, Sprague-Dawley rats. The settings on record: low calcium diet, 4 ip doses, relative to 1,25(OH)2D3, FIG. 5. The text has this: Dose administration began during the last week on 0.02% calcium diet. […] The first 10 cm of the intestine was also collected for intestinal calcium transport analysis using the everted gut sac method.

The target of assay [5] is T1, full-length recombinant rat vitamin D receptor (Rattus norvegicus, UniProt P13053).
T1 sequence (P13053 1-423): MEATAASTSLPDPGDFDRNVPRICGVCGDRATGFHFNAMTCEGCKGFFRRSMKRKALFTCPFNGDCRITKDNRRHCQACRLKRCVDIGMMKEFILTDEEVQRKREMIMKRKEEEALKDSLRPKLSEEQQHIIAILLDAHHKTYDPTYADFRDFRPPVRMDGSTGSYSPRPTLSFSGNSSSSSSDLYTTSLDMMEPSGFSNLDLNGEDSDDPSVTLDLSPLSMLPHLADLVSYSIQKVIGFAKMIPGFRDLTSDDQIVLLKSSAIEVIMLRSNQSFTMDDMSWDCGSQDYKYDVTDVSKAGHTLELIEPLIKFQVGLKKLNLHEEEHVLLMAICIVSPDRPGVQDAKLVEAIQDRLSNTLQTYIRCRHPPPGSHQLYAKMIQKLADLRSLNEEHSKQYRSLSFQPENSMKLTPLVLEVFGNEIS
Nature of the assay: biochemical.

Entries after “also recorded” stand apart in the source; their conditions may differ.

For the compound `C=C1/C(=C\C=C2/CCC[C@]3(C)[C@@H]([C@H](C)CCCC(C)(C)O)CC[C@@H]23)C[C@@H](O)C[C@@H]1O` [1α,25-dihydroxyvitamin D3, reference compound], the “serum calcium levels (in words)” value in the assay on vitamin D-deficient rats [1] (87 pmol and 780 pmol dosages, rats on 0.02% Ca diet, listed as 1,25(OH)2D3) was “increased serum calcium levels; also recorded: significant increases in serum calcium”. The results for the EC50 in assay [2] and in assay [3] were 0.2 nM and 2 nM, respectively.
Consider `C=C1[C@H](O)CC(=C/C=C2\CCC[C@]3(C)[C@@H]([C@H](C)CCCNC4CC4)CC[C@@H]23)C[C@H]1O` [CPA-1, N-cyclopropyl-(20R)-2-methylene-19,26,27-trinor-25-aza-1α-hydroxyvitamin D3], for which the “times less potent than 1,25(OH)2D3 in releasing bone calcium stores” value with vitamin D-deficient rats [1] (rats, low calcium diet, 4 ip doses, relative to 1,25(OH)2D3, FIG. 4) is listed as “about 400 times”. In addition, the “times less potent than 1,25(OH)2D3 in promoting intestinal calcium transport” value in the assay with vitamin D-deficient rats [4] was “about 20 times”. In addition, the Ki (as a rule, a measure of affinity in units of concentration, obtained from inhibition or displacement) in assay [5] is 3 nM. Also, the EC50 (as a rule, the midpoint of the concentration-response curve) in assay [2] came out at 3 nM; in assay [3] (Homo sapiens, HL-60, 96 h) it was 3 nM. In assay [2] (bone cells, relative to 1,25(OH)2D3), the “times less potent than 1,25(OH)2D3 in increasing transcription of the 24-hydroxylase gene” value was “about 10 times”.

Values taken from patent US8987235B2, “N-cyclopropyl-(20R)-2-methylene-19,26,27-trinor-25-aza-vitamin D analogs and their uses” (Wisconsin Alumni Research Foundation, priority 2011, dated 2015).
